According to ChEMBL document CHEMBL6177944, “Derivatization of ophiobolin A and cytotoxicity toward breast and glioblastoma cancer stem cells: Varying the ketone and unsaturated aldehyde moieties” (Bioorg Med Chem Lett, 2025):
Active and inactive are the calls of the source. No cut-off for these calls is given here.

Columns and labels:
[1] = (§1) Cytotoxicity against HMLE cells expressing Twist EMT+; assay type: functional, cell-based; conditions: Homo sapiens
[2] = Selectivity index, ratio of IC50 for cytotoxicity against human MCF7 cells to IC50 for cytotoxicity against human MDA-MB-231 cells; assay type: cell-based
MCF7 = assay: Cytotoxicity against human MCF7 cells; assay type: functional, cell-based
[3] = Cytotoxicity against HMLE cells; assay type: toxicity, cell-based; conditions: human
[4] = Selectivity index, ratio of IC50 for cytotoxicity against HMLE cells to IC50 for cytotoxicity against human HMLE cells expressing Twist EMT+; assay type: toxicity, cell-based; conditions: HMLE cells and HMLE cells expressing Twist (EMT+), read-out: Ratio IC50
[5] = Cytotoxicity against human GBM43 cells; assay type: functional, cell-based; conditions: GBM43 cell
T98G = assay: Cytotoxicity against human T98G cells; assay type: functional, cell-based
MDA-MB-231 = assay: Cytotoxicity against human MDA-MB-231 cells; assay type: functional, cell-based
[6] = Selectivity index, ratio of IC50 for cytotoxicity against human T98G cells to IC50 for cytotoxicity against human GBM43 cells; assay type: functional
HMLE = assay: as §1; assay type: functional, cell-based; conditions: Homo sapiens
[7] = Cytotoxicity against HMLE cells assessed as reduction in cell viability at 1 uM relative to control; assay type: toxicity, cell-based; conditions: human

| SMILES | IC50 [1] [µM] | Ratio IC50 [2] | IC50 (MCF7) [µM] | IC50 [3] [µM] | selectivity ratio [4] | IC50 [5] [µM] | IC50 (T98G) [µM] | IC50 (MDA-MB-231) [µM] | Ratio IC50 [6] | Activity (HMLE) | Activity [7] [%] |
| --- | --- | --- | --- | --- | --- | --- | --- | --- | --- | --- | --- |
| CC(C)=C[C@H]1C[C@H](C)[C@]2(CC[C@]3(C)C[C@H]4[C@@H](/C(CO)=C\C[C@H]32)[C@@H](O)C[C@@]4(C)O)O1 | 134 | ~ 1 | 387 | 140 | ~1 | > 1000 | > 1000 | 384 | – | – | – |
| CC(C)=C[C@H]1C[C@H](C)[C@]2(CC[C@]3(C)C[C@@H]4C(C)=CC(=O)[C@@H]4/C(CO)=C\C[C@H]32)O1 | – | – | – | – | – | 24 | 298 | – | ~12 | – | – |
| COc1cccc2c1C(=O)c1c(O)c3c(c(O)c1C2=O)C[C@@](O)(C(=O)CO)C[C@@H]3O[C@H]1C[C@H](N)[C@H](O)[C@H](C)O1 [DOXORUBICIN] | – | – | – | – | – | – | – | – | – | inactive | < 50 |
| CC(C)=C[C@H]1C[C@H](C)[C@]2(CC[C@]3(C)C[C@H]4[C@H]5/C(=C\C[C@H]32)C(=O)O[C@H]5C[C@@]4(C)O)O1 [OPHIOBOLIN A LACTONE] | 63.6 | ~ 0.74 | 232 | 91 | ~1.4 | 8.6 | 102 | 313 | ~12 | – | – |
| CC1(C)CC/C=C(/C=O)[C@H]2C(=O)C[C@@](C)(O)[C@H]2C1 | – | – | – | – | – | 106 | 859 | – | ~8 | – | – |
| CC(C)=C[C@H]1C[C@H](C)[C@]2(CC[C@]3(C)C[C@H]4[C@H]5/C(=C\C[C@H]32)C(O)O[C@H]5C[C@@]4(C)O)O1 (stereo partly specified) | 22.5 | ~ 0.25 | 39.6 | 50.2 | ~2.2 | – | – | 157 | – | – | – |
| CC(C)=C[C@H]1C[C@H](C)[C@]2(CC[C@]3(C)C[C@H]4[C@H]5/C(=C\C[C@H]32)CO[C@@]5(O)C[C@@]4(C)O)O1 | 8.84 | ~ 0.84 | 107 | 25.9 | ~2.9 | – | – | 128 | – | – | – |
| CC(C)=C[C@H]1C[C@H](C)[C@]2(CC[C@]3(C)C[C@H]4[C@H](C(=O)C[C@@]4(C)O)/C(C=O)=C\C[C@H]32)O1 [OPHIOBOLIN A] | 0.029 | – | – | 0.063 | ~2.1 | – | 1.9 | – | ~9 | – | – |
| CC(C)=C[C@H]1C[C@H](C)[C@]2(CC[C@]3(C)C[C@H]4[C@H]5[C@@H](CC[C@H]32)[C@H](O)O[C@H]5C[C@@]4(C)O)O1 | 123 | ~ 1.1 | 149 | 58.1 | ~0.47 | 363 | 444 | 136 | ~1.2 | – | – |
